Test results reported in patent US9187397B2 (STC.UNM, priority 2004, dated 2015).
Read-outs that look alike come from different tables or passages of the source.

Key:
[1] = target: glutathione S-transferase P1-1 (Homo sapiens (Human), UniProt P09211); assay: GSTP1-1 enzyme inhibition assay (CDNB/GSH, 340 nm); type: biochemical; settings: 1 mM CDNB, 1 mM GSH, pH 6.5; compared with curcumin
Method: Kinetic analysis assays were conducted. […] GSTP1-1 activity was measured at pH 6.5 in 1 ml volumes of 20 mM potassium phosphate buffer containing 100 mM NaCl, 1 mM CDNB and 1 mM GSH. […] (Perkin/Elmer Lambda 2S spectrophotometer). These activities were plotted as percent of control (GSTP1-1 activity without inhibitors). Kinetic analysis (dissociation constants) of inhibitors was determined by linear regression analysis of the Dixon, plots. […] Ki's were calculated utilizing SigmaPlot's Enzyme Kinetics Module™ (Chicago, Ill., USA). […]
These activities were plotted as percent of control (GSTP1-1 activity without inhibitors).

AP-1 = AP-1 luciferase reporter cellular assay (293/AP1-luc, PMA-stimulated); type: cell-based, human; settings: for activity in the AP-1 cellular assay (screen): 15 μM, compared with curcumin; for IC50: Homo sapiens, inhibition of PMA-induced AP-1 activation, 293/AP1-luc cells, Table 10, read-out: AP-1 IC50
Method: This cell line is obtained by co-transfection of pAP1-luc and pTK-hyg containing plasmids followed by the addition of hygromycin (200 μg/ml) to maintain cell selection.
After 24 hr, the cells had reached approximately 60% confluency. […] Plate wells were gently washed with PBS, pH 7.4, and lysed with passive lysis buffer (1×, 100 μl, Promega). The subsequent chemiluminescent lysates were analyzed with the Luciferase Assay System (Promega) utilizing a TD-20/20 luminometer. The relative light units (photons) were determined by the addition of firefly luciferase substrate (75 μl) to cell lysate (10 μl). The light units were then normalized to the amount of protein in the well (mg/ml) with BCA™ Protein Assay Kit (Pierce) and standardized to percent of control (PMA).
(§1) This cell line is stably transfected with a luciferase reporter controlled by an AP-1 dependent promoter. The cell is stimulated with phorbol ester which activates AP-1. AP-1 then binds to one of three promoter regions on the cells DNA leading to the production of a luciferase enzyme. Luciferin is added to the cell lysates and the luciferase enzyme catalyzes a cleavage of luciferin leading to the emission of light.

[2] = Total Radical-trapping Anti-oxidant Parameter assay (TRAP assay); settings: 10 μM in ethanol; compared with curcumin
Method: This assay is also known as the Total radical-trapping anti-oxidant parameter assay (TRAP assay). For the TRAP assay (Re et al., Free Rad. Biol. […] The turquoise colored reaction was allowed to stabilize for 5 min and the absorbance monitored on a Perkin Elmer UV/Vis Lambda 2S. […] The following FIGS. 2A-2C) show the analogs active in the TRAP assay.

NF-κB = NF-κB luciferase reporter cellular assay (293T/NF-κB-luc, TNFα-stimulated); type: cell-based, human; settings: for inhibition of the activation of NF-κB by TNFα (screen): 10 μM, compared with curcumin; for IC50: Homo sapiens, HEK-293T, inhibition of TNFα-induced NF-κB activation
Method: The cell line is derived from human 293T embryonic kidney cells expressing the large T antigen containing a chromosomal integration of a luciferase reporter construct regulated by 6 copies of the NF-κB response element (Panomics, Inc.). This stable clonal cell line is obtained by co-transfection of pNF-κB-luc and pTK-hyg containing plasmids followed by the addition of hygromycin (200 μg/ml) to maintain cell selection.
The cell line was grown in a humidified atmosphere at 37° C. in 5% CO2/95% air and maintained in Dulbecco's Modified Eagle's Medium (DMEM-high glucose containing 4 mM glutamine) containing fetal bovine serum (FBS, 10%), sodium pyruvate (1 mM), penicillin (100 units/ml), streptomycin (100 μg/ml) and hygromycin (100 μg/m) to maintain cell selection (Gibco/Invitrogen).
The 293T/NF-κB-luc cells were re-plated 24 hr prior to treatment, into 24-well cell culture plates in media without hygromycin, to prevent it from interfering with the assay. The cells were then allowed to grow and attach, to the wells, for 24 hr in a humidified atmosphere at 37° C. in 5% CO2/95% air. […] The cells then were placed again in a humidified atmosphere at 37° C. in 5% CO2/95% air for 7 hr. Plate wells were gently washed with PBS, pH 7.4, and lysed with passive lysis buffer (1×, 100 μl, Promega). The subsequent chemiluminescent lysates were analyzed with the Luciferase Assay System (Promega) utilizing a TD-20/20 luminometer. The relative light units (photons) were determined by the addition of firefly luciferase substrate (75 μl) to cell lysate (10 μl). The light units were then normalized to the amount of protein in the well (mg/ml) with BCA™ Protein Assay Kit (Pierce) and standardized to percent of control (TNFα).
as §1, with “This assay utilized a commercially available cell line (Panomics 293T-luc cellular assay) developed for screening inhibitors of NF-κB. This” for “This”, “NF-κB” for “AP-1”, “tumor necrosis factor alpha (TNFα)” for “phorbol ester”, “NF-κB. NF-κB” for “AP-1. AP-1”, “six” for “three”, “cell's” for “cells”
This cell line was developed by Panomics for screening potential inhibitors of NF-κB. Cells are stimulated with TNF-α to express luciferase, whose activity is monitored in a chemiluminometer.
An NF-κB reporter stable cell line from human 293T embryonic kidney cells (293T/NFκB-luc) (Panomics) was grown in a humidified atmosphere at 37° C. in 5% CO2/95% air. The cells were maintained in Dulbecco's Modified Eagle's Medium (DMEM—high glucose containing 4 mM glutamine) supplemented with 10% fetal bovine serum (FBS), 1 mM sodium pyruvate, 100 units/ml penicillin, 100 μg/m streptomycin and 100 μg/ml hygromycin (Gibco/Invitrogen, Carlsbad, Calif.)) to maintain cell selection. One day prior to treatment, the 293T/NFκB-luc cells were plated into 24-well cell culture plates (Costar) at approximately 70% confluency in the above media without hygromycin. The following day cells were fed fresh media 1 hour prior to treatment. […] The cells were placed again in a humidified atmosphere at 37° C. in 5% CO2/95% air for 7 hours. Plate wells were gently washed with phosphate buffered saline, pH 7.4, and lysed with 1× passive lysis buffer (Promega). The subsequent lysates were analyzed with the Luciferase Assay System (Promega) utilizing a TD-20/20 luminometer (Turner Designs). The firefly luciferase relative light units were normalized to protein (mg/ml) with BCATM Protein Assay Kit (Pierce) and standardized to TNF-α control.

[3] = Ferric Reducing/Anti-oxidant Power assay (FRAP assay); settings: 10 μM in ethanol; compared with curcumin
Method: Anti-oxidant activity was also measured in the Ferric reducing/anti-oxidant power assay (FRAP assay) in which the analogs are reacted with a ferric tripyridyltriazine complex. For the FRAP assay (Benzie et al., Meth. Enzymol. 1999, 299, 15-27), the ferric complex was prepared at room temperature by reaction of ferric chloride (16.7 mM) and 2,4,6-tripyridyl-s-triazine (8.33 mM) in acetate buffer (0.25 M) to pH 3.6. The FRAP reagent was used immediately after preparation. […] The reaction was mixed by vortexing, allowed to stabilize for 5 min and the absorbance recorded on a Perkin Elmer UV/Vis Lambda 2S. […] The synthetic analog of α-tocopherol (vitamin E), Trolox, was used as a reference standard (10 μM in ethanol).
The second assay used, the FRAP assay, determines the analogs abilities to reduce a Fe(III) tripyridyltriazine complex to a Fe(II) tripyridyltriazine complex. The following FIGS. 3A-3C) show analogs active in the FRAP assay.

[4] = Reactivity toward L-cysteine as nucleophile (absorbance 425 nm); type: physicochemical; settings: 1 mM L-cysteine in sodium phosphate buffer, pH 7; read-out: t1/2 of absorbance quenching by L-cysteine
Method: Natural log values were determined based on 1st order kinetics.
Weber et al., (2005) Bioorg Med Chem 13, 3811-3820. These groups potentially serve as Michael acceptors which are chemically reactive and can form undesirable covalent modifications with biomolecules. Michael acceptors are generally thought to be poor drug compounds because of their high reactivity toward nucleophilies.
These groups potentially serve as Michael acceptors which are a chemically reactive species that can form undesirable covalent modifications with binding targets. […] Michael acceptors are generally thought to be poor drug compounds because of their high reactivity toward nucleophiles. […] In addition, at or below neutral pH, primary amino groups are predominantly in their protonated form and therefore weak nucleophiles that are unlikely to react to any significant extent with curcumin.

Aβ oligomers and fibrils = Aβ oligomers and fibrils (Homo sapiens (Human), UniProt P05067); settings: cited from earlier work
Sequence of Aβ oligomers and fibrils (P05067 672-711): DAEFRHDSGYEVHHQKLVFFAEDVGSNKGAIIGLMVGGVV

Sequence of glutathione S-transferase P1-1 (P09211 2-210): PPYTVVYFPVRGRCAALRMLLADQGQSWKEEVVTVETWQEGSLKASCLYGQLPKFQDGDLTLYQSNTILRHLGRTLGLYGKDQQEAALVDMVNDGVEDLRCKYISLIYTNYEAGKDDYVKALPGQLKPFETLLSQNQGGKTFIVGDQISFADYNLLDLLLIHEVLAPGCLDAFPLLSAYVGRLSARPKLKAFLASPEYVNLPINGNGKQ

O=C(/C=C(O)/C=C/c1ccccc1)/C=C/c1ccccc1 [3b]
activity in the GSTP1-1 screening assay [1]: more active than curcumin

COc1ccccc1/C=C/C(=O)/C=C(O)/C=C/c1ccccc1OC [3c]
activity in the GSTP1-1 screening assay [1]: more active than curcumin

CC(C(=O)C=Cc1ccccc1)=C(O)C=Cc1ccccc1 [6b]
activity in the GSTP1-1 screening assay [1]: more active than curcumin

O=C(/C=C/c1ccccc1)/C(Cc1ccccc1)=C(O)/C=C/c1ccccc1 [9b]
activity in the AP-1 cellular assay (screen) (AP-1): active
activity in the GSTP1-1 screening assay [1]: more active than curcumin

O=C(/C=C/c1ccccc1)C(Cc1ccccc1)(Cc1ccccc1)C(=O)/C=C/c1ccccc1 [12b]
activity in the GSTP1-1 screening assay [1]: more active than curcumin

Cc1ccc(/C=C/C(=O)/C=C/c2ccc(C)cc2)cc1 [20aa]
activity in the GSTP1-1 screening assay [1]: better inhibitory activity than curcumin

Cc1cccc(/C=C/C(=O)/C=C/c2cccc(C)c2)c1 [20ab]
activity in the GSTP1-1 screening assay [1]: better inhibitory activity than curcumin

O=C(/C=C/c1ccccc1)/C=C/c1ccccc1 [20b]
activity in the GSTP1-1 screening assay [1]: better inhibitory activity than curcumin

O=C(/C=C/c1ccc(O)cc1)/C=C/c1ccc(O)cc1 [20f]
activity in the GSTP1-1 screening assay [1]: better inhibitory activity than curcumin

O=C(/C=C/c1cccc(O)c1)/C=C/c1cccc(O)c1 [20p]
activity in the GSTP1-1 screening assay [1]: better inhibitory activity than curcumin

O=C(/C=C/c1ccc(Cl)cc1)/C=C/c1ccc(Cl)cc1 [20x]
activity in the GSTP1-1 screening assay [1]: better inhibitory activity than curcumin

O=C(/C=C/c1cccc(Cl)c1)/C=C/c1cccc(Cl)c1 [20y]
activity in the GSTP1-1 screening assay [1]: better inhibitory activity than curcumin

O=C(/C=C/c1ccccc1Cl)/C=C/c1ccccc1Cl [20z]
activity in the GSTP1-1 screening assay [1]: better inhibitory activity than curcumin

COc1cc(/C=C/C(=O)c2ccc(O)c(OC)c2)ccc1O [45a]
activity in the TRAP assay [2]: more active than curcumin
activity in the AP-1 cellular assay (screen) (AP-1): most active
inhibition of the activation of NF-κB by TNFα (screen) (NF-κB): more active than curcumin
activity in the FRAP assay [3]: active

COc1cc(/C=C/C(=O)/C=C(O)/C=C/c2ccc(O)c(OC)c2)ccc1O [analog 3a, 1,7-Bis(4-hydroxy-3-methoxyphenyl)-1,6-heptadiene-3,5-dione]
half-life at 20 μM [4]: 7.2 min
IC50 for disaggregation of preformed fibrils (Aβ oligomers and fibrils; in vitro): 1.0 µM
IC50 for fibril inhibition (Aβ oligomers and fibrils; in vitro): 0.8 µM
IC50 for Aβ oligomerization reported by Yang, et al. (Aβ oligomers and fibrils; non-biotinylated Aβ(1-40)): ~1 µM

O=C(/C=C/c1ccncc1)/C=C/c1ccncc1 [compound 29]
activity in the AP-1 cellular assay (screen) (AP-1): more active than curcumin
IC50 (AP-1): 8.2 µM
inhibition of the activation of NF-κB by TNFα (screen) (NF-κB): more active than curcumin
activity in the GSTP1-1 screening assay [1]: better inhibitory activity than curcumin

O=C(/C=C/c1cccnc1)/C=C/c1cccnc1 [compound 31]
activity in the AP-1 cellular assay (screen) (AP-1): more active than curcumin
IC50 (AP-1): 4.1 µM
inhibition of the activation of NF-κB by TNFα (screen) (NF-κB): more active than curcumin
IC50 (NF-κB; 293T/NF-κB-luc cells, Table 5, read-out: IC50): 3.4 µM
IC50 (NF-κB; Table 10, read-out: NF-κB IC50): 3.4 µM
activity in the GSTP1-1 screening assay [1]: better inhibitory activity than curcumin
